pIC50: −log10 of the molar value.
Assays:
[1] = Pharmacokinetics in cynomolgus monkeys; type: in vivo; details: cynomolgus monkey, plasma, PO 10 mg/kg
Experimental: (§1) Liquid Chromatograph with Tandem Mass Spectrometry (LC-MS/MS) Method for Pharmacokinetic Assays: Samples are extracted using a protein precipitation by adding 180 μL of MeOH:ACN (1:1, v/v) containing an internal standard and 25 μL (rodent samples) or 50 μL(non-rodent samples) of plasma. Samples are then diluted with Methanol:Water (1:1, v/v) to get concentrations within standard curve range. Diluted samples are analyzed by LC-MS/MS using a Sciex API 4000 triple quadrupole mass spectrometer (Applied Biosystems/MDS; Foster City, Calif.) equipped with a TurbolonSpray interface, and operated in positive ion mode. The analytes are chromatographically separated using a Thermo Betasil C18 5 um 20×2.1 mm Javelin column (rodent samples) or Advantage ECHIELON C18 4 um 20 mm×2.1 mm ID column (non-rodent samples). LC conditions are Water/1 M ammonium bicarbonate, (2000:10, v/v) (Mobile Phase A), and MeOH/1 M ammonium bicarbonate, (2000:10, v/v) (Mobile Phase B).
The compounds is administered by a single oral (PO; 10 mg/kg; volume of 5 mL/kg) dose in vehicle. Blood is collected from each animal at 0, 0.25, 0.5, 1, 2, 4, 8, 12, 24, 32, 48, and 72 h post-dosage. The plasma concentrations of Example 1 are determined by a LC-MS/MS method as described above.

[2] = Pharmacokinetics in OATP1A/1B knockout mice; type: in vivo; details: OATP1A/1B knockout (Taconic #10707), mouse, IV 1 mg/kg
Experimental: as §1
(§2) Example 1 is administered by a single intravenous (IV; 1 mg/kg; volume of 1 mL/kg) dose in vehicle. Blood is collected from each animal at 0, 0.08, 0.25, 0.5, 1, 2, 4, 8, 12, and 24 h post-dosage. Liver, spleen, and pancreas is collected, weighed and perfused at 24 h post-dosage. The plasma and tissue concentrations of Example 1 are determined by a LC-MS/MS method as described above.

human KHK-C = human KHK-C (Homo sapiens (Human), UniProt P50053); assay: KHK enzyme activity assay, human KHK-C; type: biochemical; details: fructose 250 μM, ATP 150 μM; read-out: hKHK-C IC50
Experimental: (§3) KHK Enzyme Activity Assay for Human KHK-C and Human KHK-A
(§4) Enzyme is prepared in assay buffer [50 mM 4-(2-hydroxyethyl)piperazine-1-ethanesulfonic acid (HEPES), 10 mM potassium chloride, 100 mM magnesium chloride, 2 mM tris(2-carboxyethyl)phosphine (TCEP), 0.01% n-octyl glucoside] and incubated with compounds at RT for 15 min. The reaction is carried out in 100 μL volumes containing substrate concentrations of fructose (250 μM for KHK-C assay and 1.25 mM for KHK-A assay) and ATP (150 μM for both isoforms); which are further incubated at RT for 20 min. The reaction is then halted by the addition of stop buffer; consisting of 0.2% formic acid and 1 μg/ml ^13C6-fructose-6-phosphate (^13C6-F6P) internal standard. […] RapidFire MS Analysis for Quantitation of F1P: […]
(§5) Solvent A, used for sample loading and washing, is 6 mM octylamine (Acros Organics 129495000) brought to pH 5.0 using acetic acid. […] Samples are sequentially analyzed by aspirating 10 μL onto the collection loop under vacuum directly from multiwell plates. […]
(§6) The triple quadrupole mass spectrometer is equipped with an ESI source and analytes are monitored using selected reaction monitoring (SRM) in negative mode [M−H]−. F1P is monitored at m/z 259.02/96.9 and ^13C6-fructose-6-phosphate is monitored at m/z 264.99/97. The area ratio values for F1P is calculated using ^13C6-fructose-6-phosphate as internal standard.

human KHK-A = human KHK-A (Homo sapiens (Human), UniProt P50053); assay: KHK enzyme activity assay, human KHK-A; type: biochemical; details: fructose 1.25 mM, ATP 150 μM; read-out: hKHK-A IC50
Experimental: as §3, §4, §5, §6

[3] = Pharmacokinetics in FVB wild type mice; type: in vivo; details: mouse, IV 1 mg/kg
Experimental: as §1, §2

[4] = Pharmacokinetics in Beagle dogs; type: in vivo
Experimental: as §1
Example 1 is administered by a single oral (PO; 3 mg/kg; volume of 2 mL/kg) or intravenous (IV; 1 mg/kg; volume of 1 mL/kg) dose in vehicle. Blood is collected from each animal at 0, 0.03 (IV group only), 0.08 (IV), 0.25, 0.5, 1, 2, 4, 8, 12, 24, 32 (IV), 48 (IV), and 72 (IV) h post-dosage. The plasma concentrations of Example 1 are determined by a LC-MS/MS method as described above.

OATP1B3 = OATP1B3 (Homo sapiens (Human), UniProt Q9NPD5); assay: Inhibition of OATP1B3 (rosuvastatin uptake); type: cell-based; details: rosuvastatin 400 nM substrate, 30 min pre-incubation
Experimental: (§7) Inhibition of OATP1B1 and OATP1B3
(§8) The OATP1B1, OATP1B3, and vector control (VC) cells are grown in 5% CO2 at 37° C. in a humidified atmosphere in DMEM supplemented with 10% FBS, 50 μg/mL gentamycin, and 5 μg/mL blasticidin. The cells are seeded in 24-well BioCoat Poly-D-Lysine plates. The cells are treated with 5 mM sodium butyrate in supplemented DMEM 24 h prior to experimentation. Cell cultures are washed twice with pre-warmed PBS prior to experimentation. After washing, all cell types are incubated for 30 min at 37° C. in 200 μL buffer, buffer plus varying concentration of test article, or with appropriate positive control inhibitor. Based upon preliminary data concentrations from 0.025 to 12.5 μM for OATP1B1 and 0.20 to 100 μM for OATP1B3 (nominal) are tested. At the start of the preincubation, 50 µL of buffer is removed for determination of in-well test article concentrations by LC-MS/MS. Following the pre-incubation period, the buffer is removed. […] Samples are taken from each well from plates to count for radioactivity and protein concentration in each well is determined by bicinchoninic acid method. IC50 values are determined by fitting the data using GraphPad Prism. Nominal concentrations are converted to measured concentrations prior to fitting.

human hepatocytes = assay: Intrinsic clearance in human hepatocytes (-/+ABT); type: in vitro ADME; details: with vs without ABT (pan-CYP450 inhibitor)
Experimental: Intrinsic Clearance in Human Hepatocytes (−/+ABT)
This method is intended to identify in vitro metabolic clearance by substrate depletion in hepatocytes. Incubation in the presence and absence of ABT, a pan-CYP450 enzyme inhibitor, is used to estimate the contribution of CYP-mediated metabolism. Cryopreserved human hepatocytes are thawed at 37° C., spun down and reconstituted in hepatocyte maintenance media to a density of 1×10^6 viable cells/mL. To a pre-warmed 96-well plate, 196 μL of the hepatocyte suspension is added to each well. The cells are pre-incubated with and without ABT as follows: for ABT pre-incubation, 2 μL of 100 mM ABT solution is added (2 μL of media without ABT is added to control samples), and the plate incubated at 37° C. for 30 min under constant shaking (˜600 rpm). Following, 2 μL of a 30 μM stock solution of test article is added and at 0, 15, 30, 60, 120, 240 min 20 μL aliquots are taken and quenched by transfer to ACN containing internal standard. Following centrifugation at 4000 rpm for 30 min, supernatant concentrations are determined by LC-MS/MS. Clearance is calculated from the slope of % compound remaining over time.

OATP1B1 = OATP1B1 (Homo sapiens (Human), UniProt Q9Y6L6); assay: Inhibition of OATP1B1 (rosuvastatin uptake); type: cell-based; details: rosuvastatin 400 nM substrate, 30 min pre-incubation
Experimental: as §7, §8

[5] = Elimination pathways in bile duct cannulated Beagle dogs; type: in vivo; details: IV 1 mg/kg
Experimental: as §1
Example 1 is administered by a single intravenous (IV; 1 mg/kg; volume of 1 mL/kg) dose in vehicle. Blood is collected from each animal at 0, 0.033, 0.083, 0.25, 0.5, 1, 2, 4, 8, 12, 24, 32, 48 and 72 h post-dosage. Bile is collected from each animal at 1, 2, 3, 4, 5, 6, 12, 18, 24, 32, 48 and 72 h post-dosage. Urine is collected at 12, 24, 48, and 72 h and feces collected at 24, 48, and 72 h post-dosage. The plasma, bile, urine and feces concentrations of Example 1 are determined by a LC-MS/MS method as described above.

[6] = liver at 24 h, read-out: mean liver unbound partition coefficient (Kpuu)
[7] = plasma, 1 mg/kg, heading: mean clearance
[8] = plasma, read-out: volume of distribution

Sequence of human KHK-C (P50053 whole entry): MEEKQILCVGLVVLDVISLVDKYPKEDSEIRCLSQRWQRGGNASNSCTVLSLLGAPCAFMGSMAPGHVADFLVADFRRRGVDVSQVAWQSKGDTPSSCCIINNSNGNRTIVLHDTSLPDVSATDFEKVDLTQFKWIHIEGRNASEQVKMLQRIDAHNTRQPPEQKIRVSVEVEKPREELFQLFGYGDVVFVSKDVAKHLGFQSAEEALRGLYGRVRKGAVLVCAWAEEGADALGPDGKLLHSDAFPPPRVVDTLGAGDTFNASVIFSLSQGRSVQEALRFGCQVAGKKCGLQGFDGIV
Sequence of human KHK-A (P50053 other isoform, or with tags, fused parts or gaps): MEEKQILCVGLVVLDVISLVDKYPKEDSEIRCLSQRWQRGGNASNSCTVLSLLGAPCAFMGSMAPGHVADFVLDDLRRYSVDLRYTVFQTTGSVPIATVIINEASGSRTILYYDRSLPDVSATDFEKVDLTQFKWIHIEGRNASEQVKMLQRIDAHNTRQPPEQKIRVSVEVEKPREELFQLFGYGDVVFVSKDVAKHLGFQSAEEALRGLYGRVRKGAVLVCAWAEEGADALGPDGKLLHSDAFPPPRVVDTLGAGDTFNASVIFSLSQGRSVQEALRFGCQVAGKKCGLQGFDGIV
Sequence of OATP1B1 (Q9Y6L6 whole entry, species assumed): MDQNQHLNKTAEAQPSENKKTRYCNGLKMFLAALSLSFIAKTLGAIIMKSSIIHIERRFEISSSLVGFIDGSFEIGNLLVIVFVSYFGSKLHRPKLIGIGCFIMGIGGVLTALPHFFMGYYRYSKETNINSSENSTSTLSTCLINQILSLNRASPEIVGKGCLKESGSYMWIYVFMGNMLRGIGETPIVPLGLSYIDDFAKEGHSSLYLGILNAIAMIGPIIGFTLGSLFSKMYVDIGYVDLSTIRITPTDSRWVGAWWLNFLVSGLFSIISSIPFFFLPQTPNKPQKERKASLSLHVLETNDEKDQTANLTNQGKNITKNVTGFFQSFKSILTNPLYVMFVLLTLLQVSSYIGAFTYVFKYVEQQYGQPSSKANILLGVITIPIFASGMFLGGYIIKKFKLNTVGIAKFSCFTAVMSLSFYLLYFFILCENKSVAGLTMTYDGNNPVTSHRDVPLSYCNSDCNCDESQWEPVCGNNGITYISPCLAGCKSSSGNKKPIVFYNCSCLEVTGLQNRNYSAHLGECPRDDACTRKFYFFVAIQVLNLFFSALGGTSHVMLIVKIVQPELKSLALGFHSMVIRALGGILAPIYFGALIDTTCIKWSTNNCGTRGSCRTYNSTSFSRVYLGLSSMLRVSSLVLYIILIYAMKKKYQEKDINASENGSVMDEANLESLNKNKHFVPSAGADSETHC
Sequence of OATP1B3 (Q9NPD5 whole entry, species assumed): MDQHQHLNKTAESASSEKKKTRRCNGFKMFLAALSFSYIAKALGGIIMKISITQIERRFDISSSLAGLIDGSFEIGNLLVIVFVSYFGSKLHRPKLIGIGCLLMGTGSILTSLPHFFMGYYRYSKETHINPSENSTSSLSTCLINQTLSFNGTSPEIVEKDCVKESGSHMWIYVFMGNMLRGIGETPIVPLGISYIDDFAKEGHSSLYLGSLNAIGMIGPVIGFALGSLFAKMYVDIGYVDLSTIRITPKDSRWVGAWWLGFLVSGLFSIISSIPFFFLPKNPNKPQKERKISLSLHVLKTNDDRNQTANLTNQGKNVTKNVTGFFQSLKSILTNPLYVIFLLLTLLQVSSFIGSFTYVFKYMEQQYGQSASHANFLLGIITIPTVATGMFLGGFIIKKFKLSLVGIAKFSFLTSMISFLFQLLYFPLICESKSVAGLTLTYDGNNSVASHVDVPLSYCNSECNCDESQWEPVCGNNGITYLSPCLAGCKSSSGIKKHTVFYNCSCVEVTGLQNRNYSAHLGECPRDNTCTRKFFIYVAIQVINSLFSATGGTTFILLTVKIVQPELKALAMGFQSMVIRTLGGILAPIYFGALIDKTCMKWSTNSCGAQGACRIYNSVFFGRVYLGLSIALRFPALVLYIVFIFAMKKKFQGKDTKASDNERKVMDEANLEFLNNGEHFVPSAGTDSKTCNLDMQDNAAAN

C[C@H]1CCN1c1nc(N2CC[C@H](CC(=O)O)C2)cc(C(F)(F)F)c1C#N [Example 1, 2-[(3R)-1-[5-cyano-6-[(2S)-2-methylazetidin-1-yl]-4-(trifluoromethyl)-2-pyridyl]pyrrolidin-3-yl]acetic Acid]
half-life [1]: 15.3 h
Kp uu at 24 h [2, 6]: 24.2
clearance [2, 7]: 1.34 mL/min/kg
half-life ([2]; plasma): 9.36 h
Vd [2, 8]: 0.986 L/kg
pIC50 (human KHK-C): 8.05
pIC50 (human KHK-A): 7.72
Kp uu at 24 h [3, 6]: 67.5
clearance [3, 7]: 6.91 mL/min/kg
half-life ([3]; plasma): 5.43 h
Vd [3, 8]: 2.74 L/kg
mean half-life ([4]; IV 1 mg/kg): 7.4 h
clearance ([4]; dog, plasma, 1 mg/kg, heading: mean clearance, IV 1 mg/kg): 2.52 mL/min/kg
half-life ([4]; dog, plasma, IV 1 mg/kg): 7.4 h
Vd ([4]; dog, plasma, IV 1 mg/kg, read-out: volume of distribution): 1.33 L/kg
bioavailability ([4]; dog, plasma, PO 3 mg/kg): ~93%
half-life ([4]; dog, plasma, PO 3 mg/kg): 6.9 h
pIC50 (OATP1B3): 5.26
inhibition of clearance by ABT (human hepatocytes): ~12%
pIC50 (OATP1B1): 6.92
administered IV dose recovered in bile [5]: ~10%
urine levels [5]: negligible
clearance ([5]; dog, plasma, 1 mg/kg, heading: mean clearance): 4.69 mL/min/kg
half-life ([5]; dog, plasma): 2.9 h
Vd ([5]; dog, plasma, read-out: volume of distribution): 0.546 L/kg

C[C@H]1CCN1c1nc(N2CC(CC(=O)O)C2)cc(C(F)(F)F)c1C#N [Example 2, 2-[1-[5-cyano-6-[(2S)-2-methylazetidin-1-yl]-4-(trifluoromethyl)-2-pyridyl]azetidin-3-yl]acetic Acid]
pIC50 (human KHK-C): 7.57
pIC50 (human KHK-A): 7.43

Source: patent US10781212B2, “2,6-diamino pyridine compounds” (Eli Lilly and Company, priority 2018, dated 2020)
